Test results from patent US20230000808A1, “COMPOSITIONS AND METHODS EXCLUDING OR WITH REDUCED GLUTAMINE FOR THE TREATMENT OF HEMOGLOBINOPATHIES AND THALASSEMIAS” (AXCELLA HEALTH INC., priority 2019, published 2023).

Tests used:
[1] = system: IL-6; test: LPS-induced IL-6 secretion in primary human monocyte-derived macrophages (ELISA); format: cell-based; conditions: for Donor 1 IL-6 Measurements Mean / Donor 2 IL-6 Measurements Mean / Donor 3 IL-6 Measurements Mean: LPS, baseline subtracted
Protocol: (§1) Primary human PMBC derived macrophages were seeded on day 0 at 3.0×10^4 cells per well in 96-well microplates (ThermoFisher) in Dulbecco's Modified Eagle Medium (DMEM) (Gibco) supplemented with penicillin-streptomycin (Hyclone) and 10% heat inactivated fetal bovine serum (HI-FBS) (Atlanta Bio) and incubated overnight at 37° C., 5% CO2. On day 1, cells were washed once with 150 μl per well DPBS (Gibco) and treated with 75 μl of: • a. […] The same medium described above with one amino acid at various concentrations including complete dropout. […] On day 3, the supernatant was collected and immediately frozen in −80° C. freezer. Cells were washed once with 150 μl DPBS and viability was assessed using the WST-8 Cell Proliferation Cytotoxicity Assay (Dojindo). […] Protein levels in supernatant samples were analyzed by ELISA for IL-6 and TNFα using commercially available kits (R&D Systems) according to manufacturer-supplied protocols.

[2] = system: TNFα; test: LPS-induced TNF-α secretion in primary human monocyte-derived macrophages (ELISA); format: cell-based; conditions: LPS, baseline subtracted
Protocol: as §1

[3] = system: RBCs of healthy whole blood; test: RBC deformability (Elongation Index, LORRCA ektacytometry), ex vivo TBHP oxidation of healthy whole blood; format: cell-based, human; conditions: healthy donor 2, single amino acid treatments
Description: Whole blood from healthy African American and/or Hispanic donors was obtained from Research Blood Components, LLC based on the following donor selection criteria: Adult age (between 18 and 50 years), normal BMI (<30), and absence of other confounding clinical conditions. Whole blood from SCD donors were obtained from BioIVT based on the following donor selection criteria: Patients with genotypes HbSS, HbSC, HbS/β^0 and at least 1-2 months gap since last blood transfusion. Whole blood was shipped on ice on the same day as blood draw. Upon receipt, the blood sample was aliquoted and stored in the refrigerator until used for studies.
RBC deformability measurements were conducted with the Laser Optical Rotational Red Cell Analyzer (LORRCA) from RR Mechatronics in a temperature-controlled environment (37° C.). Briefly, an even layer of RBCs suspended in polyvinylpyrrolidone (PVP) is subjected to shear stress gradient (0.3 to 30 Pa) through two concentric cylinders and the resulting changes in RBC shape or deformability are measured by a laser beam diffraction pattern. The captured images of RBC shape in response to increasing shear stress are then analyzed by the LORRCA program to calculate Elongation Index (EI).
Healthy RBCs have higher deformability ≥0.5 EI and SCD RBCs have lower deformability or EI values as studied by LORRCA ektacytometry in the field. […] The induced hemolysis model in this disclosure involves use of tert-butyl hydroperoxide (TBHP) to lower EI of RBCs.
The ex vivo hemolysis study disclosed here involves overnight treatment of whole blood with vehicle as a control and specific amino acids followed by rapid oxidation (5 min) with TBHP. Method for oxidation of whole blood with tert-butyl hydroperoxide has been used in prior literature (Diederich L, et al, Front Physiol. 2018 May 11; 9:332). RBC deformability or shape changes are then measured with LORRCA ektacytometry.
Whole blood aliquots stored in the fridge were brought up to room temperature while gently shaking on a rocker at low speed for an hour to ensure gradual and uniform suspension of red blood cells prior to deformability measurements. Vehicle control used in the study was 1× Dulbecco's […]) and amino acids disclosed herein were added (at either final 10× or 2.5 mM concentration as indicated) to corresponding vehicle and amino acid treatment conditions. The samples were then incubated overnight at 37° C. The next day, 25 μl of whole blood was taken from each treatment condition and added to 5 mL Elon ISO viscous solution from RR Mechatronics. The sample was inverted 15-20 times to ensure proper mixing of the treated RBCs with the Elon ISO solution followed by loading the sample on LORRCA and capturing RBC deformability or shape measurements over the applied shear gradient. The remaining whole blood treatments were returned to incubator (37° C.) until deformability measurements were completed for all treatments. To the remaining whole blood treatment samples, TBHP solution (5.0-6.0 M in Decane, Sigma) was added at 2.5 mM final concentration from a 100 mM freshly prepared stock and incubated for further 5 min at 37° C. 25 μl of this TBHP-treated sample was immediately removed at the end of the 5 min incubation and added to the Elon ISO solution for RBC deformability measurement after oxidation. Included in the Tables 13-15 are EI measurements at ½ EImax shear stress 1.69 Pa and EImax shear stress 30 Pa from these studies and FIG. 1 captures EI measurements for all shear stress points for the indicated treatment conditions.

[4] = system: whole blood from healthy controls; test: ROS (DCF fluorescence) in whole blood of healthy control donors, H2O2-induced; format: cell-based, human
Protocol: (§2) Whole blood samples were appropriately diluted in Ca^2+- and Mg^2+-free Dulbecco's phosphate buffered saline (DPBS, Life Technologies) and the concentration of erythrocytes (RBC/mL) was measured on a Cellometer K2 Fluorescent Viability Cell Counter according to the manufacturer's RBC/AOPI protocol (Nexcelom Biosciences).
(§3) Cells were then diluted to 1×10^6 RBC/mL into either prewarmed 37° C. […] 2′-7′-dichlorofluorescin diacetate (DCF, Millipore Sigma), 20 mM in dimethyl sulfoxide (DMSO, Fisher) were added to a working concentration of 100 μM. Cells were incubated with dye for 15 minutes at 37° C., 5% CO2 in a tissue culture incubator, washed once, and resuspended in the 0.9 volumes of the same prewarmed 37° C. buffer with 5 minute spins at 500×g, accel/decal=5 in a swing arm centrifuge (Beckman Coulter). […] Where possible due to solubility constrains, pH-7.4-adjusted stock solutions of amino acids were used. Wells were mixed by pipetting and plates incubated at 37° C., 5% CO2 in a tissue culture incubator for 30 minutes. Optionally, 40 mM H2O2 (Millipore Sigma) freshly prepared in the same buffer was added to bring the concentration to 2 mM, wells mixed by pipetting, and plates were incubated an additional 30, 60, 120, or 240 minutes before fluorescence measurement of ROS signal on a Synergy H4 (BioTek) microplate reader with excitation=488 nm and emission=530 nm, and gain either set to autogain, 75, or 100.

[5] = system: sickle cell disease patient blood; test: ROS (DCF fluorescence) in sickle cell disease patient whole blood; format: cell-based, human
Protocol: as §2, §3

[6] = system: IL-6; test: Secreted IL-6 in HLMVEC treated with TNF-α (FirePlex); format: cell-based, human; conditions: HLMVEC + 0.5 ng/mL TNF-α, 24 h; amino acids 20x HMDB, Nac/Cit/Car 5 mM as bracketed
Protocol: (§4) Primary Human Lung Microvascular Endothelial Cells (HLMVEC; Lonza) were seeded at 6,000 cells per well in Endothelial Cell Growth Basal Medium-2 (Lonza) supplemented with Fetal Bovine Serum (FBS; Lonza), human EGF (Lonza), human VEGF (Lonza), R3-Insulin-like Growth Factor-1 (Lonza), ascorbic acid (Lonza), hydrocortisone (Lonza), human FGF-beta (Lonza), and gentamicin/amphotericin-b (Lonza) in a 96-well plate (Thermo Fisher). The cells were incubated for 45 minutes at room temperature, then incubated overnight at 37° C./5% CO2.
(§5) Following overnight incubation, cell were washed once with 150 μL of Dulbecco's phosphate buffered saline (DPBS; Gibco), and then treated with Endothelial Basal Medium MCB-131 (amino acid, glucose, sodium pyruvate, and phenol red free; US Biologicals) containing a defined custom amino acid concentration based on physiological concentrations in blood of patients with SCD (thus recapitulating observed metabolic imbalances such as the depletion of certain essential amino acids including arginine and aspartate and enrichment of certain non-essential amino acids including glutamate and asparagine), dialyzed FBS (Hyclone), human EGF (Lonza), human VEGF (Lonza), R3-Insulin-like Growth Factor-1 (Lonza), ascorbic acid (Lonza), hydrocortisone (Lonza), human FGF-beta (Lonza), and gentamicin/amphotericin-b (Lonza), glucose, 10 mM HEPES, sodium pyruvate, and sodium bicarbonate supplemented with one of the following: • a. PBS (vehicle control), • b. 0.5 ng/mL Tumor Necrosis Factor alpha (TNFα) and PBS, or; • c. 0.5 ng/mL TNF-α and amino acid treatments at 20× mean physiological concentrations in plasma based on values published in the Human Metabolome Database (HMDB) in PBS.
Supernatants were analyzed for IL-6 concentrations using a Human Cytokines FirePlex-HT Panel 1 kit (abcam) according to the manufacturer-supplied instructions. Particles were imaged on a high content imager (Molecular Devices), and results were interpolated from a standard curve with FirePlex Analysis Workbench Software (abcam) according manufacturer's recommendations.

[7] = system: ICAM-1; test: ICAM-1 cell integrated intensity in HLMVEC treated with TNF-α (immunofluorescence); format: cell-based, human; conditions: HLMVEC + 0.5 ng/mL TNF-α, 24 h; amino acids 20x HMDB, Nac/Cit/Car 5 mM as bracketed
Protocol: as §4, §5
(§6) After 24 hours of treatment, cells were washed once with 150 μL of DPBS (Gibco), then fixed with 4% paraformaldehyde. Following fixation, cells were stained with anti-ICAM-1 [MEM-111] (mouse IgG2a anti-human; abcam) and anti-VCAM1 [1.4C3] (mouse IgG1, K anti-human; abcam) primary antibodies at 1000×, and 100× dilutions respectively. Cells were then stained with Goat anti-Mouse IgG2a Cross-Adsorbed Secondary Antibody, Alexa Fluor 594 (Invitrogen) and Goat anti-Mouse IgG1 Cross-Adsorbed Secondary Antibody, Alexa Fluor 647 (Invitrogen) secondary antibodies. Nuclei were stained with Hoechst 3342 (Life Technologies).
(§7) Antibody binding was detected by fluorescence microscopy using a high content imager (Molecular Devices). Images were analyzed using MetaXpress 6 software to determine the integrated intensity per cell for each wavelength corresponding to ICAM-1 or VCAM-1.

[8] = system: VCAM-1; test: VCAM-1 cell integrated intensity in HLMVEC treated with TNF-α (immunofluorescence); format: cell-based, human
Protocol: as §4, §5, §6, §7

[9] = system: HLMVEC; test: META-rank score, composite of VCAM1, ICAM1 and IL6 in the HLMVEC model; format: cell-based, human; conditions: HLMVEC + TNF-α; lower score = more optimal; 20x HMDB / 5 mM
Protocol: The ability of single amino acids and combinations to simultaneously impact these phenotypes was measured by a META-rank score (Tables 17 and 18). META-rank score is a composite measure that considers the optimal impact on all 3 phenotypes (e.g. decrease VCAM1, ICAM1, and IL6) in the HLMVEC model.

[10] = Donor 1, Conc. 109 μM (baseline)

N=C(N)NCCC[C@H](N)C(=O)O [Arginine]
Donor 1 IL-6 Measurements Mean [1, 10]: 0 | Donor 1 IL-6 Measurements Mean ([1]; Donor 1, Conc. 1088 μM): −181.36 | Donor 1 IL-6 Measurements Mean ([1]; Donor 1, Conc. 2720 μM): −186.57 | Donor 1 IL-6 Measurements Mean ([1]; Donor 1, Conc. 5440 μM): 357.4394 | effect on LPS-induced IL-6 secretion ([1]; Donor 1, Two Way ANOVA Dunnett): increased | Donor 2 IL-6 Measurements Mean ([1]; Conc. 109 μM (baseline)): 2.37E−15 | Donor 2 IL-6 Measurements Mean ([1]; Conc. 1088 μM): −9.701 | Donor 2 IL-6 Measurements Mean ([1]; Conc. 2720 μM): −13.6102 | Donor 2 IL-6 Measurements Mean ([1]; Conc. 5440 μM): −12.4164 | Donor 3 IL-6 Measurements Mean ([1]; Conc. 109 μM (baseline)): 0 | Donor 3 IL-6 Measurements Mean ([1]; Conc. 1088 μM): 31.5786 | Donor 3 IL-6 Measurements Mean ([1]; Conc. 2720 μM): −7.503 | Donor 3 IL-6 Measurements Mean ([1]; Conc. 5440 μM): −6.81 | TNF-α Measurements Mean [2, 10]: 0 | TNF-α Measurements Mean ([2]; Donor 1, Conc. 1088 μM): −24.33 | TNF-α Measurements Mean ([2]; Donor 1, Conc. 2720 μM): 5.12 | TNF-α Measurements Mean ([2]; Donor 1, Conc. 5440 μM): 62.06 | TNF-α Measurements Mean ([2]; Donor 2, Conc. 109 μM (baseline)): 1.42E−14 | TNF-α Measurements Mean ([2]; Donor 2, Conc. 1088 μM): −12.7222 | TNF-α Measurements Mean ([2]; Donor 2, Conc. 2720 μM): −3.763 | TNF-α Measurements Mean ([2]; Donor 2, Conc. 5440 μM): −0.5738 | TNF-α Measurements Mean ([2]; Donor 3, Conc. 109 μM (baseline)): 3.55E−15 | TNF-α Measurements Mean ([2]; Donor 3, Conc. 1088 μM): 3.131 | TNF-α Measurements Mean ([2]; Donor 3, Conc. 2720 μM): −0.9669 | TNF-α Measurements Mean ([2]; Donor 3, Conc. 5440 μM): −1.767 | EI over vehicle control, both ½ EImax and EImax [3]: higher than the vehicle

N[C@@H](Cc1c[nH]c2ccccc12)C(=O)O [tryptophan]
ROS signal ([4]; healthy donor blood, 10×): increased | ROS signal ([5]; 10×): increased

N[C@@H](CS)C(=O)O [cysteine]
ROS measured in whole blood ([4]; healthy control donors treated with H2O2, dose-responsive): reduced | ROS measured in whole blood ([5]; both treated with H2O2 and untreated, in DPBS): reduced

NC(=O)NCCC[C@H](N)C(=O)O [Cit, citrulline]
EI over vehicle control, both ½ EImax and EImax [3]: higher than the vehicle | Secreted IL6 Median [6]: −0.270 | ICAM-1 Cell Integrated Intensity Median [7]: −0.118 | VCAM-1 expression in HLMVEC ([8]; 0.5 ng/mL TNF-α, amino acids at 20× HMDB, 24 hours): moderate effect | VCAM-1 Cell Integrated Intensity Median ([8]; HLMVEC + 0.5 ng/mL TNF-α, 24 h, amino acids 20x HMDB, Nac/Cit/Car 5 mM as bracketed): −0.157 | Meta-Rank (Table 18) [9]: 8 | Metarank (Table 17) [9]: 16
